Entries after “also recorded” stand apart in the source; their conditions may differ. Structures can show the parent of a compound that is named as a salt. Where two headings read alike, the source gives them in different places.
Tests used:
[1] = Clinical comparative pharmacokinetic study, 3-period cross-over, single oral doses, plasma samples; type: in vivo, human; settings: for AUC(0-inf) / Cmax / Tmax: human, po, 15 mg; for AUC(0-inf): read-out: AUC0-inf Geometric Least Square Mean (GLSM); for Cmax: read-out: Cmax Geometric Least Square Mean (GLSM)
Method: A clinical comparative pharmacokinetic study was performed to understand the pharmacokinetic profile of metopimazine mesylate Crystal Form A in comparison to the free base of metopimazine. This study was as a 3-period, cross-over design with 3 administrations of single doses: oral formulation of metopimazine mesylate Crystal Form A fasting, oral formulation of metopimazine mesylate Crystal Form A after a high-fat breakfast, and oral formulation of metopimazine free base fasting, with a wash-out period of 48 hours between each administration. Fifteen subjects were enrolled and received each of the 3 treatment. Plasma samples from each subject were analyzed for various pharmacokinetic parameters. Mixed model repeated measures (MMRM) analysis was performed on each sample.
The second objective of this study was to compare the pharmacokinetics of metopimazine mesylate Crystal Form A administered as an oral administration of a single dose of 15 mg orally in 15 human subjects either in a fasted state or after a high fat breakfast. Plasma samples from each subject were analyzed for various pharmacokinetic parameters. […] Both Cmax and AUC are well within the 90% confidence interval.

[2] = administration before and after a high fat breakfast; cited from earlier work
[3] = single oral dose 15 mg, n = 15, fasted, plasma
[4] = 15 mg oral, n = 15, 90% confidence interval
[5] = 15 mg oral, n = 15, 90% confidence interval, *Bioequivalence
[6] = plasma, 15 mg oral, n = 15, fasted
[7] = plasma, 15 mg oral, n = 15, fed high fat breakfast (1030 kcal, 16% protein, 61% fat, 23% carbohydrate)

SMILES	Tmax, Median [1, 3]	Tmax, Min [1, 3]	Reduction in AUC (food effect) [2]	Reduction in Cmax (food effect) [2]	Reduction in Cmax when administered with food ([1]; 15 mg oral, high fat breakfast vs fasted)	Change in AUC, high fat breakfast vs fasted ([1]; 15 mg oral, n = 15)	Geometric mean difference in Cmax, high fat breakfast vs fasted ([1]; 15 mg oral, n = 15)	Cmax ratio fasted vs fed, Lower CI % [1, 4]	Cmax ratio fasted vs fed, Upper CI % [1, 4]	AUC0-inf ratio fasted vs fed, Lower CI % [1, 5]	AUC0-inf ratio fasted vs fed, Upper CI % [1, 5]	AUC(0-inf) [1, 6]	Cmax [1, 6]	AUC(0-inf) [1, 7]	Cmax [1, 7]	Tmax ([1]; plasma, single oral dose 15 mg, n = 15, fasted, plasma, read-out: Tmax, Mean)	Tmax ([1]; plasma, single oral dose 15 mg, n = 15, fasted, plasma, read-out: Tmax, Median)
CS(=O)(=O)c1ccc2c(c1)N(CCCN1CCC(C(N)=O)CC1)c1ccccc1S2 [Metopimazine free base, 1-(3-(2-(methylsulfonyl)-10H-phenothiazin-10-yl)propyl)piperidine-4-carboxamide, reference compound]	60 min	30 min	23%	58%													
CS(=O)(=O)c1ccc2c(c1)N(CCCN1CCC(C(N)=O)CC1)c1ccccc1S2 [Metopimazine mesylate Crystal Form A, 1-(3-(2-(methylsulfonyl)-10H-phenothiazin-10-yl)propyl)piperidine-4-carboxamide methanesulfonic acid]					approximately 15%	not statistical difference; also recorded: no notable change	slightly but significantly lower	63.82%	110.75%	86.00* %	101.93* %	64 ng·h/mL	18.2 ng/mL	59.9 ng·h/mL	15.3 ng/mL	52.2 min	45 min
